# According to patent US20250049904A1, “IMMUNOSTIMULATORY COMPOSITIONS” (VICTORIA LINK LIMITED, priority 2021, published 2025):
# Key:
# [1] = system: NKT cells in the liver; experiment: NKT cell phenotype in the liver after LPX-mRNA vaccination (CD1d/α-GalCer tetramer binding, PD-1); format: in vivo, C57BL/6 mice; details: correlates with dose
# Experimental: Dose response of LPX-mOVA-α-GalCer versus LPX-mOVA-CI058 vaccines. Analysis was in C57BL/6 mice, without transfer of OT-I cells, so endogenous T cell responses were monitored on a normal T cell repertoire. Groups of 5 mice were used, and vaccines were administered intravenously. After 28 days, mice were killed and liver tissue collected for analysis of induced T cell response by flow cytometry. […] At the same timer, NKT cells in the liver were also evaluated using fluorescent CD1d/α-GalCer tetramers. […] (B) Graph showing mean level of expression of the “invariant” NKT cell-associated TCR for each treatment group (±SEM), defined as level of binding of fluorescent CD1d/α-GalCer tetramers and expressed as mean fluorescence index. ****P<0.0001 (C) Graph showing mean level of expression of PD-1 on NKT cells for each treatment group (±SEM). **P<0.01
# Lymphocytes were stained with monoclonal antibodies for: CD8a (53-6.7), Ly5.1 (A20), CD44 (IM7), CXCR6 (SA051D1), CX3CR1 (SA011F11), from BioLegend (Australian Biosearch, Karrinyup, WA. Australia), and CD62L (MEL-14) and CD69 (H1.2F3), from eBioscience (Jomar Life Research, Scoresby, VIC, Australia). […] Single-color positive control samples were used to adjust compensation and cells were analyzed by flow cytometry on a LSR Fortessa (BD Biosciences), or LSRII SORP using Flowjo software (Tree Star Inc.).
# [2] = system: tissue-resident memory T cells (TRM cells); experiment: LPX-mRNA vaccination of mice i.v.; antigen-specific TRM, TEM and TCM cells in liver and spleen by flow cytometry; format: in vivo, C57BL/6 mice
structure (smiles),measurement,setting,value
"CCCCCCCCCCCCCCCCCCCCCCCCCC(=O)N[C@@H](CO[C@H]1O[C@H](CSCC(=O)Nc2ccc(C3=C4C(C)=CC(C)=[N+]4[B-](F)(F)n4c(C)cc(C)c43)cc2)[C@H](O)[C@H](O)[C@H]1O)[C@H](O)[C@H](O)CCCCCCCCCCCCCC [CI058, (2S,3S,4R)-1-(6-Deoxy-6-((2-((4-(5,5-difluoro-1,3,7,9-tetramethyl-5H-4λ4,5λ4-dipyrrolo[1,2-c:2′,1′-f][1,3,2]diazaborinin-10-yl)phenyl)amino)-2-oxoethyl)thio)-α-D-galactopyranosyloxy)-2-hexacosanoylamino-3,4-octadecandiol]",expression of NKT cell-associated invariant TCR in liver,[1]; CD1d/α-GalCer tetramers,significantly reduced expression
same,expression of PD-1 on liver NKT cells,[1],significantly increased expression
same,overall TRM cell accumulation in the liver,"[2]; agonist in LPX-mOVA vaccine, OT-I transfer, liver 30 days later",significantly better at inducing accumulation of TRM cells
same,proportion of liver TRM among all vaccine-induced antigen-specific T cells (TRM cell-inducing capability),"[2]; agonist in LPX-mOVA vaccine, OT-I transfer, liver 30 days later, relative to α-GalCer vaccine",superior liver TRM cell-inducing agonist
same,"proportion of antigen-specific TRM cells, liver vs spleen","[2]; malaria model vaccination, LPX-mOVA with CI058, 30 days","significant changes in proportion of antigen-specific TRM cells, which is more pronounced in liver compared to spleen"
